Results published in ChEMBL document CHEMBL1201862, “PubChem BioAssay data set” (2004).
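Values below derive from 48-hour exposures of cells grown in 96-well plates, with endpoints linearly interpolated between the two concentrations bracketing the appropriate inhibition level. GI50 marks 50% less growth.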 Calls of active or inactive are those of the source. Rule as the data show it: active = GI50 up to about 1.1 µM and inactive = higher.

Experiments:
Assay in all cases: NCI tumour cell line growth inhibition, 48 h
SK-OV-3 = system: SK-OV-3
RXF 631 = system: RXF 631
DMS-114 = system: DMS-114
OVCAR-3 = system: OVCAR-3
SK-MEL-28 = system: SK-MEL-28
SNB-75 = system: SNB-75
Malme-3M = system: Malme-3M
A549 = system: A549
SN12C = system: SN12C
CAKI-1 = system: CAKI-1
LOX IMVI = system: LOX IMVI
A498 = system: A498
UO-31 = system: UO-31
LXFL 529 = system: LXFL 529
786-0 = system: 786-0
XF498 = system: XF498
UACC-62 = system: UACC-62
HT-29 = system: HT-29
KM12 = system: KM12
DLD-1 = system: DLD-1
M19-MEL = system: M19-MEL
SNB-78 = system: SNB-78
U-251 = system: U-251
UACC-257 = system: UACC-257
SF-268 = system: SF-268
OVCAR-8 = system: OVCAR-8
ACHN = system: ACHN
HOP-92 = system: HOP-92
SK-MEL-2 = system: SK-MEL-2
RPMI-8226 = system: RPMI-8226
SK-MEL-5 = system: SK-MEL-5
IGROV-1 = system: IGROV-1
SR = system: SR
K562 = system: K562
OVCAR-4 = system: OVCAR-4
HCT-15 = system: HCT-15
HOP-62 = system: HOP-62
NCI-H23 = system: NCI-H23
NCI-H522 = system: NCI-H522
SNB-19 = system: SNB-19
COLO 205 = system: COLO 205
NCI-H460 = system: NCI-H460
HCT-116 = system: HCT-116
HCC 2998 = system: HCC 2998
HL-60 = system: HL-60
SW-620 = system: SW-620
EKVX = system: EKVX
KM-20L2 = system: KM-20L2
CCRF-CEM = system: CCRF-CEM
MOLT-4 = system: MOLT-4
M14 = system: M14
OVCAR-5 = system: OVCAR-5
HOP-18 = system: HOP-18
NCI-H226 = system: NCI-H226
SF-295 = system: SF-295
SF-539 = system: SF-539
TK-10 = system: TK-10
DMS-273 = system: DMS-273
RXF 393 = system: RXF 393

`N/N=C1\C(=O)N(C2CCCCC2)C(=O)C1C(=O)NC1CCCCC1` (stereo not drawn) was tested. Which GI50 (SK-OV-3) did it give?
Its GI50 is 47.5 µM (inactive).

And the GI50 (RXF 631)?
The GI50 was > 100 µM (inactive).

What about the GI50 (DMS-114) of the same compound?
Its GI50 is > 100 µM (inactive).

And the GI50 (OVCAR-3)?
Its GI50 is 21 µM (inactive).

What about the GI50 (SK-MEL-28) of the same compound?
Its GI50 is 81.8 µM (inactive).

What about the GI50 (SNB-75) of the same compound?
Its GI50 is 56.4 µM (inactive).

And the GI50 (Malme-3M)?
Its GI50 is > 100 µM (inactive).

What about the GI50 (A549) of the same compound?
The GI50 was > 100 µM (inactive).

And the GI50 (SN12C)?
Its GI50 is 31.6 µM (inactive).

What about the GI50 (CAKI-1) of the same compound?
Its GI50 is > 100 µM (inactive).

And the GI50 (LOX IMVI)?
Its GI50 is > 100 µM (inactive).

What about the GI50 (A498) of the same compound?
Its GI50 is > 100 µM (inactive).

What about the GI50 (UO-31) of the same compound?
Its GI50 is > 100 µM (inactive).

And the GI50 (LXFL 529)?
The GI50 was > 100 µM (inactive).

And the GI50 (786-0)?
The GI50 was > 100 µM (inactive).

And the GI50 (XF498)?
Its GI50 is > 100 µM (inactive).

What about the GI50 (UACC-62) of the same compound?
The GI50 was > 100 µM (inactive).

And the GI50 (HT-29)?
The GI50 was > 100 µM (inactive).

And the GI50 (KM12)?
Its GI50 is > 100 µM (inactive).

What about the GI50 (DLD-1) of the same compound?
Its GI50 is > 100 µM (inactive).

And the GI50 (M19-MEL)?
Its GI50 is > 100 µM (inactive).

And the GI50 (SNB-78)?
The GI50 was 43.1 µM (inactive).

What about the GI50 (U-251) of the same compound?
Its GI50 is > 100 µM (inactive).

What about the GI50 (UACC-257) of the same compound?
The GI50 was 87.9 µM (inactive).

And the GI50 (SF-268)?
The GI50 was > 100 µM (inactive).

What about the GI50 (OVCAR-8) of the same compound?
The GI50 was > 100 µM (inactive).

And the GI50 (ACHN)?
Its GI50 is > 100 µM (inactive).

And the GI50 (HOP-92)?
The GI50 was > 100 µM (inactive).

And the GI50 (SK-MEL-2)?
The GI50 was 28.9 µM (inactive).

What about the GI50 (RPMI-8226) of the same compound?
The GI50 was > 100 µM (inactive).

And the GI50 (SK-MEL-5)?
Its GI50 is 33.7 µM (inactive).

What about the GI50 (IGROV-1) of the same compound?
The GI50 was > 100 µM (inactive).

And the GI50 (SR)?
Its GI50 is > 100 µM (inactive).

And the GI50 (K562)?
Its GI50 is > 100 µM (inactive).

And the GI50 (OVCAR-4)?
The GI50 was > 100 µM (inactive).

What about the GI50 (HCT-15) of the same compound?
Its GI50 is over 100 µM.

What about the GI50 (HOP-62) of the same compound?
The GI50 was > 100 µM (inactive).

What about the GI50 (NCI-H23) of the same compound?
Its GI50 is > 100 µM (inactive).

And the GI50 (NCI-H522)?
Its GI50 is > 100 µM (inactive).

What about the GI50 (SNB-19) of the same compound?
The GI50 was > 100 µM (inactive).

What about the GI50 (COLO 205) of the same compound?
The GI50 was > 100 µM (inactive).

And the GI50 (NCI-H460)?
The GI50 was > 100 µM (inactive).

What about the GI50 (HCT-116) of the same compound?
Its GI50 is > 100 µM (inactive).

And the GI50 (HCC 2998)?
Its GI50 is > 100 µM (inactive).

And the GI50 (HL-60)?
The GI50 was 26.2 µM (inactive).

What about the GI50 (SW-620) of the same compound?
The GI50 was > 100 µM (inactive).

And the GI50 (EKVX)?
The GI50 was > 100 µM (inactive).

And the GI50 (KM-20L2)?
The GI50 was 20.7 µM (inactive).

What about the GI50 (CCRF-CEM) of the same compound?
The GI50 was > 100 µM (inactive).

What about the GI50 (MOLT-4) of the same compound?
The GI50 was > 100 µM (inactive).

And the GI50 (M14)?
The GI50 was > 100 µM (inactive).

And the GI50 (OVCAR-5)?
The GI50 was > 100 µM (inactive).

What about the GI50 (HOP-18) of the same compound?
The GI50 was > 100 µM (inactive).

And the GI50 (NCI-H226)?
Its GI50 is > 100 µM (inactive).

And the GI50 (SF-295)?
Its GI50 is > 100 µM (inactive).

What about the GI50 (SF-539) of the same compound?
The GI50 was > 100 µM (inactive).

Which results are given for `C/N=C(\N=c1/ss/c(=N\C)n1C)N(C)C.[O-][Cl+3]([O-])([O-])O`?
GI50 (SK-OV-3): > 100 µM (inactive); GI50 (RXF 631): > 100 µM (inactive); GI50 (DMS-114): > 100 µM (inactive); GI50 (OVCAR-3): 53.1 µM (inactive); GI50 (SK-MEL-28): > 100 µM (inactive); GI50 (SNB-75): > 100 µM (inactive); GI50 (A549): > 100 µM (inactive); GI50 (SN12C): > 100 µM (inactive); GI50 (CAKI-1): 78.2 µM (inactive); GI50 (LOX IMVI): 45.9 µM (inactive); GI50 (A498): 29.2 µM (inactive); GI50 (UO-31): > 100 µM (inactive); GI50 (LXFL 529): > 100 µM (inactive); GI50 (786-0): > 100 µM (inactive); GI50 (XF498): > 100 µM (inactive); GI50 (TK-10): > 100 µM (inactive); GI50 (DMS-273): 37.8 µM (inactive); GI50 (UACC-62): > 100 µM (inactive); GI50 (HT-29): > 100 µM (inactive); GI50 (KM12): > 100 µM (inactive); GI50 (DLD-1): 94.6 µM (inactive); GI50 (M19-MEL): > 100 µM (inactive); GI50 (U-251): > 100 µM (inactive); GI50 (UACC-257): 97.3 µM (inactive); GI50 (SF-268): > 100 µM (inactive); GI50 (OVCAR-8): 97.1 µM (inactive); GI50 (ACHN): > 100 µM (inactive); GI50 (HOP-92): > 100 µM (inactive); GI50 (RPMI-8226): 74.6 µM (inactive); GI50 (SK-MEL-5): > 100 µM (inactive); GI50 (IGROV-1): > 100 µM (inactive); GI50 (SR): 70.8 µM (inactive); GI50 (K562): 40.7 µM (inactive); GI50 (OVCAR-4): > 100 µM (inactive); GI50 (NCI-H23): 54.6 µM (inactive); GI50 (NCI-H522): 76 µM (inactive); GI50 (SNB-19): > 100 µM (inactive); GI50 (COLO 205): 28.2 µM (inactive); GI50 (NCI-H460): > 100 µM (inactive); GI50 (HCC 2998): > 100 µM (inactive); GI50 (HL-60): 43.5 µM (inactive); GI50 (SW-620): > 100 µM (inactive); GI50 (EKVX): > 100 µM (inactive); GI50 (RXF 393): > 100 µM (inactive); GI50 (KM-20L2): > 100 µM (inactive); GI50 (MOLT-4): 59.7 µM (inactive); GI50 (M14): > 100 µM (inactive); GI50 (OVCAR-5): > 100 µM (inactive); GI50 (HOP-18): 23.9 µM (inactive); GI50 (NCI-H226): 45.2 µM (inactive); GI50 (SF-295): > 100 µM (inactive); GI50 (SF-539): 79.1 µM (inactive)
